# Data taken from publication PMC5651862 (Scientific Reports, 2017).
# Columns and labels:
# 3T3-L1 preadipocytes = assay: Adipocyte differentiation in 3T3-L1 pre-adipocytes (Oil Red O); format: cell-based; settings: 1–10 µM, 8 days, insulin 1 µg/mL
# Method: PPARγ plays a major role in adipocyte differentiation and in the regulation of adipose-related genes that are involved in developing the adipose phenotype. […]
# solution in PBS. After 4 hours plates were read on a Tecan GeniosPro plate reader using an excitation wavelength of 535 nm and an emission wavelength of 580 nm.
# Adipocyte differentiation in 3T3-L1 cells
# Insulin control Rosiglitazone (1 µM) […]
# dimer (1). 3T3-L1 cells were incubated in medium containing insulin (1 µg/mL) for 8 days with or […]
# µM) was used as positive control. The medium was exchanged every second day. At day 8, cells were fixed in 10% formaldehyde, stained with Oil Red O and photographed (A). Oil Red O was then […]
# solubilized and quantified at 550 nm using a plate reader (B). Lipid accumulation is expressed as fold increase compared to the insulin/solvent control (1 µg/mL insulin in 0.1 % DMSO) and is expressed as means ± SD of three independent experiments (One-way ANOVA, Bonfferoni post test, p<0.05 *). […]
# Medium was exchanged every second day. After eight days, lipid accumulation (as a measure of adipogenic differentiation) was determined by Oil Red O staining as described previously.5 For this, cells were fixed in 10% formaldehyde for 1 h and stained with Oil Red O for 10 minutes. […]
# purified human PPARγ LBD = target: T1, purified human PPARγ LBD (Homo sapiens, UniProt P37231); assay: LanthaScreen TR-FRET PPARγ competitive binding assay
# T1 construct: purchased Invitrogen
# T1 sequence (P37231 238-503 limits assumed): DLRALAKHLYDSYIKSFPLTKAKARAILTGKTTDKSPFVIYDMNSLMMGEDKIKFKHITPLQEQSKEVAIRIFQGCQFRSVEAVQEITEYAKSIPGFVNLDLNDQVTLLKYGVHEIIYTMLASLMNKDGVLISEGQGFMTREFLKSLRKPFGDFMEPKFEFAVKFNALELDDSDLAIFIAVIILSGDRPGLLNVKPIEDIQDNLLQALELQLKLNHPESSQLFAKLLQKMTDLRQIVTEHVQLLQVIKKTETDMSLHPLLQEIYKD
# Method: In this assay a fluorescently labeled ligand (Fluormone, Invitrogen) is displaced upon binding of the tested compound leading to a decrease in the FRET signal. Binding to the receptor was assessed in a concentration-dependent manner. […] Compounds that bind to the PPARγ LBD displace the fluorescently labeled ligand […]. […] Data points are represented as mean ± SEM from four independent experiments performed in duplicate. […] HEK-293 cells were transfected as described in the Methods section and stimulated for 18 h, as indicated. Luciferase activity was normalized to EGFP-derived fluorescence. Results are expressed as fold induction compared with the solvent control (DMSO, 0.1%). EC50 values were calculated using a sigmoidal curve fit with variable slope. […] HEK293 cells were transfected as described in the Methods section, treated as indicated for 18 h and luciferase activity measured as under (A). All data are shown as means ± SD of at least three independent experiments performed in quadruplicate. […] The compounds were dissolved in DMSO (solvent vehicle) and incubated together with the human PPARγ LBD tagged with GST, terbium-labeled anti-GST antibody and fluorescently labeled PPAR ligand (Fluormone™ Pan-PPAR Green). Binding of a ligand results in a fluorescence resonance energy transfer (FRET) after excitation of terbium at 340 nm and in an emission at 520 nm. Test compounds binding to the human PPARγ LBD are competing with the fluorescently labeled ligand and displacing it, resulting in a decrease of the FRET signal. […] All quantifications were performed with a GeniosPro plate reader (Tecan).
# To calculate the EC50 values data were curve fitted and non-linear transformed using a sigmoidal dose response with variable slope.
# [1] = Resazurin conversion assay (cytotoxicity); format: cell-based; settings: human, HEK293 cells, HEK293, vs DMSO 0.1%, read-out: cell viability
# Method: Assessment of cytotoxicity […]
# on cell viability assessed by the resazurin conversion assay in HEK293 cells. HEK293 cells were […]
# conversion was measured after 4 hours. Results are expressed as % cell viability compared to the solvent control DMSO (0.1%). Data are expressed as means ± SD of three independent experiments performed in quadruplicate. (One-way ANOVA, Dunnett´s test, p<0.01**). […]
# resofurin. Conversion of this non-fluorescent agent to resofurin depends on redox equivalents provided by cellular metabolism. Thus, the conversion (fluorescence signal) is direct proportional to the number of viable cells and thus to cell viability. HEK293 cells (ATCC, Manassas, VA) were seeded in 96-well plates at a density of 40,000 cells per well and incubated for 24 hours in DMEM supplemented with 2 mM glutamine, 100 U/ml benzylpenicillin, 100 μg/ml streptomycin, and 10% fetal bovine serum. Next day, cells were incubated with increasing concentrations of the indicated […]
# After 24 hours of incubation with the test compounds cells were washed again in PBS and then incubated with 10 μg/mL resazurin […]
# solution in PBS. After 4 hours plates were read on a Tecan GeniosPro plate reader using an excitation wavelength of 535 nm and an emission wavelength of 580 nm. […]
# full-length human PPARγ = target: T2, full-length human PPARγ (Homo sapiens, UniProt P37231); assay: PPARγ-dependent luciferase reporter gene transactivation in HEK293 cells
# T2 sequence (P37231 1-477 isoform P37231-2): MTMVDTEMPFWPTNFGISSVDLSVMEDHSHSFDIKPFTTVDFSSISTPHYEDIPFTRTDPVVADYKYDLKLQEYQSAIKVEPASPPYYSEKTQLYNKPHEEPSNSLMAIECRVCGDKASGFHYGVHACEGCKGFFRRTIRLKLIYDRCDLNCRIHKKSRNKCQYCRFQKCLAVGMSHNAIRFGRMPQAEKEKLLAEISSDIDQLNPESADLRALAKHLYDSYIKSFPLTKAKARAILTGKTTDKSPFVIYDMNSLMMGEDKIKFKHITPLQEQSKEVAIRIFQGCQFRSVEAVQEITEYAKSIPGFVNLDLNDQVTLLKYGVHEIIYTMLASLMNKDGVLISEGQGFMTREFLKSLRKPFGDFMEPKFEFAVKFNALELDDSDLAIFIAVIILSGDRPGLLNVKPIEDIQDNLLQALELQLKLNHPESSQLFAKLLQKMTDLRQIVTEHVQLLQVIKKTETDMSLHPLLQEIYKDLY
# PPARγ/RXRα heterodimer = target: T3, PPARγ/RXRα heterodimer (Homo sapiens, UniProt P19793+P37231); assay: PPARγ/RXRα heterodimer-induced luciferase reporter transactivation in co-transfected HEK293 cells; format: cell-based; settings: 18 h
# T3 construct: transfected with 6 μg of full-length human PPARγ and full-length human RXRα expression plasmid, respectively or both; expressed in transfected cells; host or cells: HEK293
# T3 sequence (P37231 1-477 isoform P37231-2): T2 sequence (P37231 1-477 isoform P37231-2)
# T3 sequence (P19793 1-462): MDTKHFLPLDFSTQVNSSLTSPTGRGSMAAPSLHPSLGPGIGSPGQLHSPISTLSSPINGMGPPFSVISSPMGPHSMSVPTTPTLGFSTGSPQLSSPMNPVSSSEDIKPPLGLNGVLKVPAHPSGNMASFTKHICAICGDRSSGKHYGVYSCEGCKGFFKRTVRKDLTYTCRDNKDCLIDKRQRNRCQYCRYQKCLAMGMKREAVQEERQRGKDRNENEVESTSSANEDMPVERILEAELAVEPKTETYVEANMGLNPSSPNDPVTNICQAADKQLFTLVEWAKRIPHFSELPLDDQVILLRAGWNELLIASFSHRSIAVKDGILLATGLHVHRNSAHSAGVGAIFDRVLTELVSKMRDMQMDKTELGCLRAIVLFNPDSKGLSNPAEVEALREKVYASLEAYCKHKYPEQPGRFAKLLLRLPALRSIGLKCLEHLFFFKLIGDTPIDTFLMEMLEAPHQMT
# Description: Luciferase activity was normalized to EGFP-derived fluorescence.
# full-length human RXRα = target: T4, full-length human RXRα (Homo sapiens, UniProt P19793); assay: RXRα-dependent luciferase reporter gene transactivation in HEK293 cells; settings: HEK293, 18 h, up to 10 µM
# T4 sequence (P19793 1-462): T3 sequence (P19793 1-462)
"Ki (purified human PPARγ LBD; competitive displacement of Fluormone Pan-PPAR Green, Cheng-Prusoff, four independent experiments in duplicate) [nM]",fold higher affinity to human PPARγ LBD compared to magnolol (purified human PPARγ LBD; ratio of Ki values),fold higher affinity to human PPARγ LBD compared to pioglitazone (purified human PPARγ LBD; ratio of Ki values),EC50 (full-length human PPARγ) [nM],"Emax PPARγ-dependent luciferase transactivation (full-length human PPARγ; HEK293, 18 h, Emax values ± SD, results as fold induction vs DMSO)","efficacy compared to pioglitazone (full-length human PPARγ; HEK293, Emax relative to full agonist pioglitazone)",fold lower potency compared to magnolol (full-length human PPARγ; ratio of EC50 values),"fold activation of PPARγ/RXRα heterodimer, co-treatment with bexarotene (PPARγ/RXRα heterodimer; 10 µM compound plus full RXR agonist bexarotene, HEK293 co-transfected) [fold]","fold activation of PPARγ/RXRα heterodimer (PPARγ/RXRα heterodimer; 10 µM, HEK293 co-transfected with PPARγ and RXRα, vs DMSO 0.2%) [fold]",SMILES,adipocyte differentiation (result in words) (3T3-L1 preadipocytes),"viability at 24 h, 10 µM [1] [%]","viability at 24 h, 30 µM [1] [%]",RXRα-dependent luciferase gene expression (result in words) (full-length human RXRα),RXRα-dependent luciferase gene expression (result in words) (full-length human RXRα; listed as the dimer)
5.03,more than 12 fold,more than 16 fold,1520,4.67 ± 0.26,around 62%,about 1.5 fold,13.20 ± 3.98,3.82 ± 1.22,C=CCc1ccc(O)c(-c2cc(CC=CCCCc3cc(O)c(-c4cc(CC=C)ccc4O)cc3CC=C)ccc2O)c1 [magnolol dimer (1)],induces adipocyte differentiation,≥ 90,22.7 ± 5.35,does not activate RXRα-dependent luciferase gene expression,did not transactivate RXRα-dependent luciferase gene expression
–,–,–,–,–,–,–,–,–,"C=CCc1ccc(O)c(-c2cc(CC=C)ccc2O)c1 [magnolol, reference compound]",–,≥ 90,9.1 ± 9.05,–,–
